# Legend:
# Kluyveromyces marxianus = test: Antifungal activity against Candida kefyr; format: functional
# Candida albicans [1] = test: Antifungal activity against fluconazole-susceptable Candida albicans isolate 5 after 24 hrs by microdilution method; format: functional; conditions: isolate 5, 24 h
# Candida albicans [2] = test: Antifungal activity against fluconazole-susceptable Candida albicans isolate 7 after 24 hrs by microdilution method; format: functional; conditions: isolate 7, 24 h
# Candida albicans [3] = test: Antifungal activity against fluconazole-susceptable Candida albicans isolate 10 after 24 hrs by microdilution method; format: functional; conditions: isolate 10, 24 h
# Candida albicans [4] = test: Antifungal activity against fluconazole-susceptable Candida albicans isolate 11 after 24 hrs by microdilution method; format: functional; conditions: isolate 11, 24 h
# Candida albicans [5] = test: Antifungal activity against fluconazole-susceptable Candida albicans isolate 6 after 24 hrs by microdilution method; format: functional; conditions: isolate 6, 24 h
# Candida albicans [6] = test: Antifungal activity against fluconazole-susceptable Candida albicans isolate 14 after 24 hrs by microdilution method; format: functional; conditions: isolate 14, 24 h
# Candida albicans [7] = test: Antifungal activity against fluconazole-susceptable Candida albicans isolate 3 after 24 hrs by microdilution method; format: functional; conditions: isolate 3, 24 h
# Candida albicans [8] = test: Antifungal activity against fluconazole-susceptable Candida albicans isolate 9 after 24 hrs by microdilution method; format: functional; conditions: isolate 9, 24 h
# Candida albicans [9] = test: Antifungal activity against fluconazole-susceptable Candida albicans isolate 12 after 24 hrs by microdilution method; format: functional; conditions: isolate 12, 24 h
# Candida albicans [10] = test: Antifungal activity against fluconazole-susceptable Candida albicans isolate 13 after 24 hrs by microdilution method; format: functional; conditions: isolate 13, 24 h
# Candida albicans [11] = test: Antifungal activity against fluconazole-susceptable Candida albicans isolate 2 after 24 hrs by microdilution method; format: functional; conditions: isolate 2, 24 h
# Candida albicans [12] = test: Antifungal activity against fluconazole-susceptable Candida albicans isolate 1 after 24 hrs by microdilution method; format: functional; conditions: isolate 1, 24 h
# Candida albicans [13] = test: Antifungal activity against fluconazole-resistant Candida albicans isolate 17 after 24 hrs by microdilution method; format: functional; conditions: isolate 17, 24 h
# Candida albicans [14] = test: Antifungal activity against fluconazole-susceptable Candida albicans isolate 15 after 24 hrs by microdilution method; format: functional; conditions: isolate 15, 24 h
# Candida albicans [15] = test: Antifungal activity against fluconazole-resistant Candida albicans isolate 16 after 24 hrs by microdilution method; format: functional; conditions: isolate 16, 24 h
# Candida albicans [16] = test: Antifungal activity against fluconazole-susceptable Candida albicans isolate 4 after 24 hrs by microdilution method; format: functional; conditions: isolate 4, 24 h
# Candida albicans [17] = test: Antifungal activity against fluconazole-susceptable Candida albicans isolate 8 after 24 hrs by microdilution method; format: functional; conditions: isolate 8, 24 h
# Candida albicans [18] = test: Antifungal activity against Candida albicans TIMM 0171 after 48 hrs by broth-microdilution method; format: functional; conditions: TIMM 0171, 48 h
# Candida albicans [19] = test: Antifungal activity against Candida albicans ATCC 24433 after 48 hrs by broth-microdilution method; format: functional; conditions: ATCC 24433, 48 h
# Cryptococcus neoformans [20] = test: Antifungal activity against Cryptococcus neoformans TIMM 3173 after 48 hrs by broth-microdilution method; format: functional; conditions: TIMM 3173, 48 h
# Aspergillus fumigatus = test: Antifungal activity against Aspergillus fumigatus IFM 40808 after 48 hrs by broth-microdilution method; format: functional; conditions: IFM 40808, 48 h
# [21] = biological target: T1, Glycylpeptide N-tetradecanoyltransferase (Candida albicans (strain SC5314 / ATCC MYA-2876) (Yeast), UniProt P30418); test: Inhibition of Candida albicans ATCC 90028 NMT using GLTISKLFRR-NH2 as substrate assessed as reduction in [3H]-myristoylated peptide reaction product formation preincubated with substrate for 10 mins followed by enzyme addition measured after 10 mins by HPLC analysis
# T1 sequence (P30418 whole entry): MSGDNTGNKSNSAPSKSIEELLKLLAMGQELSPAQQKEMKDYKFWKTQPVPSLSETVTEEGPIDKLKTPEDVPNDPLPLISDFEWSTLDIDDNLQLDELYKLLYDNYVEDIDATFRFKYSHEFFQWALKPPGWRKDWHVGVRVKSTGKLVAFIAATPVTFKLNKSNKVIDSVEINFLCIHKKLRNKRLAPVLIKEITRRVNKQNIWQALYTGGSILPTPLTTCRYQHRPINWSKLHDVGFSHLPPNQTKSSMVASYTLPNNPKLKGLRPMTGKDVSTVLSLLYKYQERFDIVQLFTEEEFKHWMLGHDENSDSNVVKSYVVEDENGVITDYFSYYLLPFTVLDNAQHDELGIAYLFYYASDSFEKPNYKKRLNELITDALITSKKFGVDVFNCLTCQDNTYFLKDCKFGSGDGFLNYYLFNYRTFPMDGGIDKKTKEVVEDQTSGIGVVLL
# Candida albicans [22] = test: Antifungal activity against Candida albicans TIMM 0239 after 48 hrs by broth-microdilution method; format: functional; conditions: TIMM 0239, 48 h
# Candida albicans [23] = test: Antifungal activity against Candida albicans IFM 40009 after 48 hrs by broth-microdilution method; format: functional; conditions: IFM 40009, 48 h
# Candida albicans [24] = test: Antifungal activity against Candida albicans IFM 5728 after 48 hrs by broth-microdilution method; format: functional; conditions: IFM 5728, 48 h
# Candida albicans [25] = test: Antifungal activity against Candida albicans ATCC 90028 after 48 hrs by broth-microdilution method; format: functional; conditions: ATCC 90028, 48 h
# Candida albicans [26] = test: Antifungal activity against Candida albicans ATCC 44859 after 48 hrs by broth-microdilution method; format: functional; conditions: ATCC 44859, 48 h
# Cryptococcus neoformans [27] = test: Antifungal activity against Cryptococcus neoformans H99 serotype A after 72 hrs by microdilution method; format: functional, Cryptococcus neoformans var. grubii H99
# Candida albicans [28] = test: Antifungal activity against Candida albicans; format: functional
# Candida albicans [29] = test: Antifungal activity against Candida albicans ATCC 10231 after 24 hrs by CLSI protocol based method; format: functional; conditions: ATCC 10231, 24 h
structure (smiles),measurement,setting,value
N[C@@H](CC(=O)CO)C(=O)O,MIC,Kluyveromyces marxianus,6.25 to 12.5 mg/L
COc1ccc2cc1Oc1ccc(cc1)C[C@@H]1c3cc(c(OC)cc3CCN1C)Oc1c(OC)c(OC)cc3c1[C@H](C2)N(C)CC3 [ISOTETRANDRINE],MIC80,Candida albicans [1],64 mg/L
same,MIC80,Candida albicans [2],64 mg/L
same,MIC80,Candida albicans [3],64 mg/L
same,MIC80,Candida albicans [4],64 mg/L
same,MIC80,Candida albicans [5],64 mg/L
same,MIC80,Candida albicans [6],64 mg/L
same,MIC80,Candida albicans [7],64 mg/L
same,MIC80,Candida albicans [8],64 mg/L
same,MIC80,Candida albicans [9],64 mg/L
same,MIC80,Candida albicans [10],64 mg/L
same,MIC80,Candida albicans [11],64 mg/L
same,MIC80,Candida albicans [12],64 mg/L
same,MIC80,Candida albicans [13],64 mg/L
same,MIC80,Candida albicans [14],64 mg/L
same,MIC80,Candida albicans [15],64 mg/L
same,MIC80,Candida albicans [16],64 mg/L
same,MIC80,Candida albicans [17],64 mg/L
O=C(Nc1nc2ccc(NC(=O)[C@@H]3CCC[C@H](NCc4ccc5ccccc5c4)C3)cc2s1)C1CCCC1,MIC,Candida albicans [18],0.78 µM
same,MIC,Candida albicans [19],0.78 µM
same,MIC,Cryptococcus neoformans [20],> 25 µM
same,MIC,Aspergillus fumigatus,> 25 µM
same,IC50,[21],0.49 nM
same,MIC,Candida albicans [22],0.78 µM
same,MIC,Candida albicans [23],0.78 µM
same,MIC,Candida albicans [24],0.78 µM
same,MIC,Candida albicans [25],0.78 µM
same,MIC,Candida albicans [26],0.78 µM
C=CC[C@@H]1/C=C(\C)C[C@H](C)C[C@H](OC)[C@H]2O[C@@](O)(C(=O)C(=O)N3CCCC[C@H]3C(=O)O[C@H](/C(C)=C/[C@@H]3CC[C@@H](O)[C@H](OC)C3)[C@H](C)[C@@H](O)CC1=O)[C@H](C)C[C@@H]2OC [TACROLIMUS ANHYDROUS],MIC,Cryptococcus neoformans [27],0.01 mg/L
N=C(N)NCCC[C@H](N)C(=O)N[C@@H](/C=C/CP(=O)(O)O)C(=O)O,MIC,Candida albicans [28],0.35 mg/L
O=C(O)C[C@]1(C(=O)O)OC1C(=O)O (stereo partly specified),MIC,Candida albicans [29],> 512 mg/L
